Experimental data from PubChem BioAssay (NCI).
“And” between values parts separate entries of the source, which are not always exact repeats. Equal entries are not always repeated.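 In this assay, cells in 96-well plates receive the compound at five concentrations for 48 hours. Endpoints are linearly interpolated between the surrounding concentrations. GI50: concentration for 50% inhibition of growth. TGI is the concentration that stops growth completely.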

Tested on: MDA-MB-468 breast
Test: NCI-60 cell line screen, 48 h

SMILES | GI50 | TGI
O=C1c2cccc(Oc3ccccc3)c2C(=O)c2cccc(Oc3ccccc3)c21 | > 100000 nM | > 100000 nM
Nc1ncnc2c1N=C(c1ccc3c(c1)OCO3)CC(c1ccc(Cl)cc1)N2 (stereo not given) | 10100 nM | 54900 nM
CCCCCCCCCCCC[N+]1(CCCCCCCCCCCC)CCCC(C)C1 (stereo not given) | 68.9 nM | 388 nM
CC(=O)O[C@H]1C(=O)[C@@]2(C)C([C@H](OC(=O)c3ccccc3)[C@]3(O)C[C@H](OC(=O)[C@H](O)[C@@H](NC(=O)c4ccccc4)c4ccccc4)C(C)=C1C3(C)C)[C@]1(OC(C)=O)CO[C@@H]1C[C@@H]2O (stereo not given in full) | < 5 nM | 54.5 nM
CCN1C(=S)N(CC)C2C1NC(=S)N2/N=C/C=C/c1ccccc1OC (stereo not given) | 347 nM | 31400 nM
Cc1nn(-c2ccc(Cl)cc2)c2ncnc(N/N=C/c3ccccc3O)c12 | 1710 nM and 1030 nM | 6460 nM and 7680 nM
CNC(=O)c1ncccc1Nc1nc(Nc2cc3c(cc2OC)CCCN3C(=O)CN(C)C)nc2[nH]ccc12 | 435 nM | 2470 nM
CCN(CC)CCCNc1ccc(C)c2sc3ccccc3c(=O)c12 | 365 nM | 1270 nM
COc1ccc2c(N)ncc(C#Cc3cc(C(=O)Nc4ccc(CN5CCN(C)CC5)c(C(F)(F)F)c4)cnc3C)c2c1 | 2460 nM | 8940 nM
COc1ccc(OC)c(NCC(=O)n2nc(/C=C\c3ccc(O)c(OC)c3)cc2/C=C\c2ccc(O)c(OC)c2)c1 | 2850 nM | 23300 nM
Cn1nccc1Nc1nccc(-c2ccn([C@H](CO)c3ccc(Cl)c(F)c3)c(=O)c2)n1 | 18800 nM | 57900 nM
CC1=C(C(=O)Nc2ccccc2)C(c2ccc(N(C)C)cc2)C(C(=O)Nc2ccccc2)=C(C)N1 | 43900 nM | > 100000 nM
CCN=c1sc2c(n1NC(=O)c1cc3ccc1CCc1ccc(cc1)CC3)C(=O)c1ccccc1C2=O | 719 nM | 1830 nM
Cc1cccc(NC(=O)c2sc3nc4c(cc3c2N)C(=O)CCC4)c1 | 80.7 nM | 2660 nM
O=C(/C=C/C12c3ccccc3C(c3ccccc31)C1C(=O)NC(=O)C12)c1ccccn1 (stereo not given) | 1710 nM | 4030 nM
Fc1cccc(Cl)c1/C=N/Nc1nc(N/N=C/c2c(F)cccc2Cl)nc(N2CCCCC2)n1 | 1860 nM | 6890 nM
CN[C@@H](C)C(=O)N[C@H]1CN(S(=O)(=O)c2cccc(S(=O)(=O)N3CC[C@H]4CC[C@@H](C(=O)NC(c5ccccc5)c5ccccc5)N4C(=O)[C@@H](NC(=O)[C@H](C)NC)C3)c2)CC[C@H]2CC[C@@H](C(=O)NC(c3ccccc3)c3ccccc3)N2C1=O | < 10 nM | 81.9 nM
N#CC1c2ccccc2C=CN1C(=O)CCCl (stereo not given) | 2100 nM | 5740 nM
O=C1C=C[C@H](O)[C@@]2(CO)O[C@@H]12 | 4610 nM | 20000 nM
CC1(C)N=C(N)N=C(N)N1c1ccc(CCC(=O)Nc2ccc(S(=O)(=O)F)cc2)cc1 | 1010 nM | > 100000 nM
Cc1ccc(O)cc1Nc1ccnc2ccc(S(C)(=O)=O)cc12 | 2040 nM | 9370 nM
CCN(CC)Cc1cc(Nc2nc(NC3CCC(N(C)C)CC3)c3ccccc3n2)ccc1OC (stereo not given) | 1640 nM | 3160 nM
CCNc1nc(O)c(/C=C2\C=Nc3ncccc32)s1 | 1990 nM | 4270 nM
COc1ccc2sc3c(NCCCN)nc4ccccc4c3c(=O)c2c1 | 1560 nM | 3190 nM
Cn1c([N+](=O)[O-])cnc1C=C1C(=O)c2ccccc2C1=O | 7350 nM | 33100 nM
